One experiment concerns the target T1, NOX2 (Homo sapiens, UniProt P04839).
T1 construct: endogenous in cells; host or cells: freshly isolated human blood-derived granulocytes
T1 sequence (P04839 2-570 limits assumed): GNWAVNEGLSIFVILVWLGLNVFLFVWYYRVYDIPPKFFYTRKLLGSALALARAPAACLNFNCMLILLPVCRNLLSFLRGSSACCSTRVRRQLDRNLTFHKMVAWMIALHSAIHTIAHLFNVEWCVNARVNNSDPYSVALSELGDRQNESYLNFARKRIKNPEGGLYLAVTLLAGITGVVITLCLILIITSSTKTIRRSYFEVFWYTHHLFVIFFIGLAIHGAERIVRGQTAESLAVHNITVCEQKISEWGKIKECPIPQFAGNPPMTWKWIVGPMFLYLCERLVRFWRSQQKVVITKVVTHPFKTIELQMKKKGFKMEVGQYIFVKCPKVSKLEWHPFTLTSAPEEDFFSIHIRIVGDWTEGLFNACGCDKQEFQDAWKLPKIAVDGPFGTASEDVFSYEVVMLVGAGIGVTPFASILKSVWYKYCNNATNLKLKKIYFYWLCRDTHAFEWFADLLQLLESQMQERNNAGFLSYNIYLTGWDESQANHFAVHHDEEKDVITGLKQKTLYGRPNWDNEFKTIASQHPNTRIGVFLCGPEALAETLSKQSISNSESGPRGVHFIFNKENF
T1 sequence (P13498 2-195 partner limits assumed): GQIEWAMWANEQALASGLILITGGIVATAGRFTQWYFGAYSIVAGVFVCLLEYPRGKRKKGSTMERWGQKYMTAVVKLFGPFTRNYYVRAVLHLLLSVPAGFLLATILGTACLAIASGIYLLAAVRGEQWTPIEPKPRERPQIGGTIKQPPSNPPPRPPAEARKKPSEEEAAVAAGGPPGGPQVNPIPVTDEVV
Briefly: NOX2 inhibition assay (L-012), human blood-derived granulocytes. Particulars: fMLP/PMA stimulated. In kind it is cell-based. Here is the method: Evaluation of the NOX4 inhibitors on NOX2 activity is assessed in human blood-derived granulocytes.
Afterwards, freshly isolated granulocytes are added to the wells containing the compounds in assay buffer and incubated for 1 h at 37° C. Next, a solution of Nformylmethionine-leucyl-phenylalanine (fMLP; 730 nM), phorbol myristate acetate (PMA, 100 nM) (stimuli of ROS production) and L-012 (200 μM, ROS indicator) is added to the wells and the cells are incubated for additional 30 mins at 37° C. Afterwards luminescence is measured in a SpectraMax M5 microplate reader.

The target in a further experiment is T2, human NOX1 (hNOX1) (Homo sapiens, UniProt Q9Y5S8).
T2 construct: pLV-CMV-hNOX1-puro (NM_007052.5); host or cells: HEK293 (CLS GmbH), lentiviral transduction
T2 sequence (Q9Y5S8 1-564): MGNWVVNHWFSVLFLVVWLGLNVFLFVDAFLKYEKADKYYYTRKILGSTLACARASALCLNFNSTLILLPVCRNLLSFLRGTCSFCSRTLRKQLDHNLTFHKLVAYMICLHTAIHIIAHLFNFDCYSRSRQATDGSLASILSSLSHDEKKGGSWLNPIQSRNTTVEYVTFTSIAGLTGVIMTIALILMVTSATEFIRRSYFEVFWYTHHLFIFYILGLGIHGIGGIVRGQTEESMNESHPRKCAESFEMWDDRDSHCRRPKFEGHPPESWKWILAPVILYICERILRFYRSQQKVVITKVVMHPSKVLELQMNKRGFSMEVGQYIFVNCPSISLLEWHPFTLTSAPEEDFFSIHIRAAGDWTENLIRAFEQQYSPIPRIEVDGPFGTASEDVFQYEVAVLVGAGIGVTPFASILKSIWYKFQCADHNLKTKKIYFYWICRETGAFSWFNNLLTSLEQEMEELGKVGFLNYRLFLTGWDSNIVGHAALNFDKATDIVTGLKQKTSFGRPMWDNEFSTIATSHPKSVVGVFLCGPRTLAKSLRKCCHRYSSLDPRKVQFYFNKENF
T2 sequence (P13498 2-195 partner limits assumed): T1 sequence (P13498 2-195 partner limits assumed)
The experiment is described as follows: NOX1 inhibition assay (L-012), HEK293 cells stably overexpressing human NOX1. The experiment is classed as cell-based. Particulars: HEK293-hNOX1, PMA stimulated. In short, it runs like this:
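Lentivirally transduced HEK293 stably expressing human NOX1 with NOXO1, NOXA1 and p22phox under antibiotic selection. ROS production read by L-012 chemiluminescence: probe added at 400 μM, cells incubated a further 3 h before luminescence measurement.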

The source of these data is US20240327429A1, “[1,3]Thiazolo[4,5-d]-pyrimidon-7-ones as inhibitors of NOX4” (Boehringer Ingelheim International GmbH, priority 2023, published 2024).

A value given as a limit tells only on which side of the number the result lay.

One may read the IC50 as the midpoint of a concentration-inhibition curve.

`Cc1cc(F)ccc1CSc1nc2ncsc2c(=O)n1-c1cnc(O)nc1` [Example 58]: the values for the 50% inhibitory concentration (IC50) against NOX2 and at human NOX1 (hNOX1) were > 100 µM and 11.8 µM, respectively.

For `O=c1c2scnc2nc(SCc2ccc(F)cc2F)n1-c1cnc(O)c(F)c1` [Example 38], the half-maximal inhibitory concentration (IC50) at NOX2 and against human NOX1 (hNOX1) was > 100 µM in each case.

`Cc1c(F)cccc1CSc1nc2ncsc2c(=O)n1-c1cnc(O)c(F)c1` [Example 40]: the IC50 was > 100 µM on NOX2 and 32.9 µM at human NOX1 (hNOX1).

On to `Cc1cc(F)ccc1CSc1nc2ncsc2c(=O)n1-c1cnc(O)c(F)c1` [Example 36], for which the IC50 at NOX2 and against human NOX1 (hNOX1) was > 100 µM throughout.
